“And” between values parts separate entries of the source, which are not always exact repeats. Identical values can stand only once.
System: hypertriglyceridemic patients with cardiovascular disease or at high risk for cardiovascular disease
Experiment: REDUCE-IT: time to first occurrence of adjudicated cardiovascular endpoint events (primary, key secondary, other secondary, tertiary; sensitivity and landmark analyses)
Assay type: in vivo
Settings: for New Onset Hypertension, patients with event: non-adjudicated
Description: The following study, also referred to as the REDUCE-IT clinical trial, was a large cardiovascular (CV) outcome trial designed to assess CV risk reduction benefit of AMR101 treatment (commercially known as VASCEPA®) versus placebo on the 5-point primary composite endpoint: CV death, non-fatal stroke, non-fatal myocardial infarction (MI), coronary revascularizations, or unstable angina requiring hospitalization.
A multi-center, prospective, randomized, double-blind, placebo-controlled, parallel-group study was performed to evaluate the effect of AMR101 (4 g per day) on cardiovascular health and mortality in hypertriglyceridemic patients with cardiovascular disease or at high risk for cardiovascular disease. The intended expanded indication of the study was treatment with AMR101 as an add-on to statin therapy to reduce the risk of cardiovascular events in patients with clinical cardiovascular disease or with multiple risk factors for cardiovascular disease.
The primary objective of this study was, in patients at LDL-C goal while on statin therapy, with established cardiovascular disease (CVD) or at high risk for CVD, and hypertriglyceridemia (e.g., fasting triglycerides (TG) ≥200 mg/dL and <500 mg/dL), to evaluate the effect of AMR101 4 g daily on time from randomization to first occurrence of any component of the composite of the following major CV events: CV death; nonfatal MI; (including silent MI; electrocardiograms (ECGs) were performed annually for the detection of silent MIs); nonfatal stroke; coronary revascularization; and unstable angina determined to be caused by myocardial ischemia by invasive/non-invasive testing and requiring emergent hospitalization.
The key secondary objective of this study was to evaluate the effect of AMR101 4 g daily on the time from randomization to the first occurrence of the composite of following major CV events: CV death, nonfatal MI (including silent MI), and nonfatal stroke.
Other secondary objectives for this study were to evaluate the effect of therapy on time from randomization to the first occurrence of the following individual or composite endpoints: composite of CV death or nonfatal MI (including silent MI); fatal or nonfatal MI (including silent MI); non-elective coronary revascularization represented as the composite of emergent or urgent classifications; CV death; unstable angina determined to be caused by myocardial ischemia by invasive/non-invasive testing and requiring emergent hospitalization; fatal or nonfatal stroke; composite of total mortality, nonfatal MI (including silent MI), or nonfatal stroke; and total mortality.
The key tertiary objectives for this study were to evaluate the effect of AMR101 4 g daily from baseline and percent change from baseline in fasting triglycerides and LDL-C. […]

[1] = ITT population, 4 g daily, N = 4089
[2] = ITT population, listed as Icosapent Ethyl

CC/C=C\C/C=C\C/C=C\C/C=C\C/C=C\CCCC(=O)OCC [AMR101, eicosapentaenoic acid ethyl ester]
Key secondary endpoint, HR (2-year landmark, ITT population): 0.831 | Fatal or nonfatal MI, relative risk reduction (4 g per day): 31% | Fatal or nonfatal stroke, relative risk reduction (4 g per day): 28% | Hospitalization for unstable angina, relative risk reduction (4 g per day): 32% | Total mortality, nonfatal MI, or nonfatal stroke, relative risk reduction (4 g per day): 23% | Total mortality, relative risk reduction (4 g per day): 13% | Urgent or emergent revascularization, relative risk reduction (4 g per day): 35% | Non-CV deaths, patients (CEC-adjudicated): 2.4% | Total mortality, patients (CEC-adjudicated deaths): 6.7% | Component contributing to key secondary endpoint (first event): CV Death (ITT population): 149 (3.6) n (%) | Component contributing to key secondary endpoint (first event): Nonfatal MI (ITT population): 230 (5.6) n (%) | Component contributing to key secondary endpoint (first event): Nonfatal Stroke (ITT population): 80 (2.0) n (%) | Component contributing to primary endpoint (first event): CV Death (ITT population): 137 (3.4) n (%) | Component contributing to primary endpoint (first event): Coronary Revascularization (ITT population): 189 (4.6) n (%) | Component contributing to primary endpoint (first event): Hospitalization for Unstable Angina (ITT population): 94 (2.3) n (%) | Component contributing to primary endpoint (first event): Nonfatal MI (ITT population): 205 (5.0) n (%) | Component contributing to primary endpoint (first event): Nonfatal Stroke (ITT population): 80 (2.0) n (%) | Composite: CV Death, Nonfatal MI, Non-Elective Coronary Revascularization, Unstable Angina, Nonfatal Stroke, or PVD Requiring Intervention (ITT population): 683 (16.7) n (%) | Composite: CV Death, Nonfatal MI, Non-Elective Coronary Revascularization, Unstable Angina, Nonfatal Stroke, or PVD Requiring Intervention, HR (95% CI) (ITT population): 0.77 (0.70-0.86) | Composite: CV Death, Nonfatal MI, Non-Elective Coronary Revascularization, Unstable Angina, PVD Requiring Intervention, or Cardiac Arrhythmia (ITT population): 741 (18.1) n (%) | Composite: CV Death, Nonfatal MI, Non-Elective Coronary Revascularization, Unstable Angina, PVD Requiring Intervention, or Cardiac Arrhythmia, HR (95% CI) (ITT population): 0.86 (0.78-0.94) | Composite: CV Death, Nonfatal MI, Non-Elective Coronary Revascularization, or Unstable Angina (ITT population): 513 (12.5) n (%) | Composite: CV Death, Nonfatal MI, Non-Elective Coronary Revascularization, or Unstable Angina, HR (95% CI) (ITT population): 0.76 (0.68-0.85) | Composite: CV Death, Nonfatal MI, Nonfatal Stroke, Cardiac Arrhythmia, or Cardiac Arrest (ITT population): 589 (14.4) n (%) | Composite: CV Death, Nonfatal MI, Nonfatal Stroke, Cardiac Arrhythmia, or Cardiac Arrest, HR (95% CI) (ITT population): 0.82 (0.73-0.91) | Coronary Revascularization (all), HR (95% CI) (ITT population): 0.66 | Coronary Revascularization (all), patients with event (ITT population): 9.2% | Fatal or nonfatal MI (including silent MI), patients with event (ITT population): 6.1% | Fatal or nonfatal MI, HR (ITT population): 0.688 | Fatal or nonfatal stroke, HR (ITT population): 0.720 | Fatal or nonfatal stroke, patients with event (ITT population): 2.4% | Hospitalization for unstable angina, HR (ITT population): 0.679 | Hospitalization for unstable angina, patients with event (ITT population): 2.6% | Key secondary endpoint in patients with impaired glucose metabolism at baseline, HR (ITT population): 0.829 | Key secondary endpoint in patients with impaired glucose metabolism at baseline, patients with event (ITT population): 11.3% | New Heart Failure (newly emergent CHF), HR (95% CI) (ITT population): 0.95 | New Heart Failure (newly emergent CHF), patients with event (ITT population): 4.1% | New Onset Hypertension, HR (95% CI) (ITT population): 0.86 | Non-elective (emergent or urgent) coronary revascularization, HR (ITT population): 0.653 | Peripheral Artery Disease, HR (95% CI) (ITT population): 0.97 | Peripheral Artery Disease, patients with event (ITT population): 3.8% | Primary endpoint in patients with diabetes at baseline, HR (95% CI) (ITT population): 0.769 (0.677-0.873) | Primary endpoint in patients with diabetes at baseline, patients with event (ITT population): (18.1%) | Primary endpoint in patients with impaired glucose metabolism at baseline, HR (95% CI) (ITT population): 0.795 (0.675-0.937) | Primary endpoint in patients with metabolic syndrome at baseline, HR (95% CI) (ITT population): 0.744 (0.671-0.824) | Silent MI, patients with event (ITT population): 0.7% | Sudden Cardiac Death, HR (95% CI) (ITT population): 0.69 | Total Mortality or Newly Emergent CHF (ITT population): 393 (9.6) n (%) | Total Mortality or Newly Emergent CHF, HR (95% CI) (ITT population): 0.90 (0.78-1.03) | Total mortality, HR (ITT population): 0.87 | Total mortality, nonfatal MI, or nonfatal stroke, HR (ITT population): 0.772 | Key secondary composite endpoint (CV death, nonfatal MI, nonfatal stroke), patients with event [1]: 459 (11.2%) n (%) and 459 (11.2) n (%) | Primary composite endpoint (CV death, nonfatal MI, nonfatal stroke, coronary revascularization, hospitalization for unstable angina), patients with event [1]: 705 (17.2%) n (%) and 705 (17.2) n (%) | New Onset Hypertension, patients with event (ITT population): 0.3% | New Onset Hypertension, patients with event [2]: (0.3) % | Amputation for PVD, patients with event [2]: (0.5%) | Cardiac Arrest, HR (95% CI) [2]: 0.52 (0.31, 0.86) | Cardiac Arrest, patients with event [2]: (0.5%) | Coronary Revascularization (all), HR (95% CI) [2]: 0.66 (0.58, 0.76) | Coronary Revascularization (all), patients with event [2]: (9.2%) | Elective Revascularization, HR (95% CI) [2]: 0.68 (0.57, 0.82) | Elective Revascularization, patients with event [2]: (4.7%) | Emergent Revascularization, HR (95% CI) [2]: 0.62 (0.42, 0.92) | Emergent Revascularization, patients with event [2]: (1.0%) | Ischemic Stroke, HR (95% CI) [2]: 0.64 (0.49, 0.85) | Ischemic Stroke, patients with event [2]: (2.0%)

— patent US12427134B2, “Methods of reducing the risk of cardiovascular events in a subject with atrial fibrillation and/or atrial flutter” (priority 2019, dated 2025)
